Laboratory results: ChEMBL document CHEMBL5344425, “Discovery of 5-(Pyrimidin-2-ylamino)-1H-indole-2-carboxamide Derivatives as Nur77 Modulators with Selective and Potent Activity Against Triple-Negative Breast Cancer” (J Med Chem, 2023)
Activity calls are given as the source filed them. The rule behind the calls is not given here.

What was measured:
[1] = Toxicity in BALB/c mouse xenografted with human MDA-MB-231 cells assessed as abnormal behaviour at 10 mg/kg, ip qd for 16 days; type: organism-based; details: in vivo, 384 h, time 16 day
MDA-MB-231 [2] = assay: Antitumor activity against human MDA-MB-231 cells xenografted in BALB/c mouse assessed as increase in cleaved caspase-3 expression in tumor at 10 mg/kg, ip qd for 16 days by immunohistochemical staining based analysis; type: functional, organism-based; details: time 16.0 day
MDA-MB-231 [3] = assay: Induction of apoptosis in human MDA-MB-231 cells assessed as proportion of late apoptotic cells at 1.25 uM measured after 5 hrs by AnnexinV-FITC/PI staining based flow cytometry (reference value: 2.55%); type: functional
MDA-MB-231 [4] = assay: Induction of apoptosis in human MDA-MB-231 cells assessed as proportion of late apoptotic cells at 5 uM measured after 5 hrs by AnnexinV-FITC/PI staining based flow cytometry (reference value: 2.55%); type: functional
MDA-MB-231 [5] = assay: Induction of apoptosis in human MDA-MB-231 cells transfected with Nur77 siRNA assessed as late apoptotic cells at 2 uM measured after 6 hrs by AnnexinV-FITC/PI staining based flow cytometry (reference value: 3.97%); type: functional
[6] = Toxicity in BALB/c mouse xenografted with human MDA-MB-231 cells assessed as morphological changes in liver at 10 mg/kg, ip qd for 16 days by Hematoxylin-Eosin staining based analysis; type: organism-based; details: in vivo, 384 h, time 16 day
MDA-MB-231 [7] = assay: Induction of apoptosis in human MDA-MB-231 cells transfected with Myc-Nur77 assessed as PARP cleavage at 1 to 2 uM measured after 6 hrs by western blot analysis; type: functional, cell-based; details: dose 1-2 µM
MDA-MB-231 [8] = assay: Antitumor activity against human MDA-MB-231 cells xenografted in BALB/c mouse assessed as tumor weight at 10 mg/kg, ip qd for 16 days (reference value: 1.17 gms); type: functional; details: time 16 day
MDA-MB-231 [9] = assay: Induction of apoptosis in human MDA-MB-231 cells transfected with ctr siRNA assessed as loss of mitochondrial membrane potential at 2 uM measured after 6 hrs by JC-1 staining based flow cytometry (reference value: 13.93%); type: functional
MDA-MB-231 [10] = assay: Induction of apoptosis in human MDA-MB-231 cells transfected with ctr siRNA assessed as late apoptotic cells at 2 uM measured after 6 hrs by AnnexinV-FITC/PI staining based flow cytometry (reference value: 3.97%); type: functional
HCT-116 = assay: Antiproliferative activity against human HCT-116 cells assessed as inhibition of cell growth measured after 24 hrs by MTT assay; type: functional, cell-based; details: HCT-116, 24 h
[11] = Toxicity in BALB/c mouse xenografted with human MDA-MB-231 cells assessed as body weight loss at 10 mg/kg, ip qd for 16 days; type: organism-based; details: in vivo, 384 h, time 16 day
MDA-MB-231 [12] = assay: Induction of apoptosis in human MDA-MB-231 cells assessed as increase in Tunel-488 […] at 1 uM measured after 6 hrs by confocal microscopy; type: functional, cell-based
MDA-MB-231 [13] = assay: Induction of apoptosis in human MDA-MB-231 cells transfected with Myc-cmv assessed as PARP cleavage at 2 to 5 uM measured after 6 hrs by western blot analysis; type: functional, cell-based; details: dose 2-5 µM
MDA-MB-231 [14] = assay: Induction of apoptosis in human MDA-MB-231 cells assessed as PARP cleavage measured after 6 hrs by western blot analysis; type: functional, cell-based; details: dose 0.5-5 µM
MDA-MB-231 [15] = assay: Induction of apoptosis in human MDA-MB-231 cells assessed as PARP cleavage at 2.5 uM pretreated with proteasome and calpain inhibitor, MG132 for 4 hrs followed by compound addition and measured after 6 hrs by western blot analysis; type: functional, cell-based
[16] = Toxicity in BALB/c mouse xenografted with human MDA-MB-231 cells assessed as morphological changes in heart at 10 mg/kg, ip qd for 16 days by Hematoxylin-Eosin staining based analysis; type: organism-based; details: in vivo, 384 h, time 16 day
MDA-MB-231 [17] = assay: Induction of apoptosis in human MDA-MB-231 cells transfected with Nur77 siRNA assessed as early apoptotic cells at 2 uM measured after 6 hrs by AnnexinV-FITC/PI staining based flow cytometry (reference value: 1.88%); type: functional
[18] = Toxicity in BALB/c mouse xenografted with human MDA-MB-231 cells assessed as morphological changes in kidney at 10 mg/kg, ip qd for 16 days by Hematoxylin-Eosin staining based analysis; type: organism-based; details: in vivo, 384 h, time 16 day
[19] = Toxicity in BALB/c mouse xenografted with human MDA-MB-231 cells assessed as morphological changes in lung at 10 mg/kg, ip qd for 16 days by Hematoxylin-Eosin staining based analysis; type: organism-based; details: in vivo, 384 h, time 16 day
MDA-MB-231 [20] = assay: Induction of apoptosis in human MDA-MB-231 cells assessed as PARP cleavage at 2.5 uM pretreated with protein synthesis inhibitor, cycloheximide for 4 hrs followed by compound addition and measured after 6 hrs by western blot analysis; type: functional, cell-based
[21] = Toxicity in Zebra fish AB embryo assessed as mortality rate at 1.25 uM measured after 24 to 72 hrs; parameters: species or system Danio rerio; details: zebrafish, 1.25 µM, time 24-72 hrs
T47D = assay: Antiproliferative activity against human T47D cells assessed as inhibition of cell growth measured after 24 hrs by MTT assay; type: functional, cell-based
HCC1806 = assay: Antiproliferative activity against human HCC1806 cells assessed as inhibition of cell growth measured after 24 hrs by MTT assay; type: functional, cell-based; details: HCC1806, 24 h
MDA-MB-231 [22] = assay: Induction of apoptosis in human MDA-MB-231 cells transfected with ctr siRNA assessed as early apoptotic cells at 1 uM measured after 6 hrs by AnnexinV-FITC/PI staining based flow cytometry (reference value: 1.88%); type: functional
HT-29 = assay: Antiproliferative activity against human HT-29 cells assessed as inhibition of cell growth measured after 24 hrs by MTT assay; type: functional, cell-based; details: HT-29, 24 h
[23] = Selectivity index, ratio of IC50 for cytotoxicity against human MCF-10A cells to IC50 for antiproliferative activity against human T47D cells; type: toxicity, cell-based; details: MCF-10A cells versus T47D cells, read-out: Ratio IC50
[24] = Selectivity index, ratio of IC50 for cytotoxicity against human MCF-10A cells to IC50 for antiproliferative activity against human MDA-MB-231 cells; type: toxicity, cell-based; details: MCF-10A cells versus MDA-MB-231 cells, read-out: Ratio IC50
MCF7 = assay: Antiproliferative activity against human MCF7 cells assessed as inhibition of cell growth measured after 24 hrs by MTT assay; type: functional, cell-based; details: MCF7, 24 h
[25] = target: Nuclear receptor subfamily 4immunitygroup A member 1 (Homo sapiens, UniProt P22736); assay: Modulation of Nur77 in human MDA-MB-231 cells assessed as increase in TP53 phosphorylation at Ser15 residue at 0.31 to 5 uM measured after 6 hrs by western blot analysis; type: cell-based; details: filed as modulator, dose 0.31-5 µM
Sequence of Nuclear receptor subfamily 4immunitygroup A member 1 (P22736 whole entry): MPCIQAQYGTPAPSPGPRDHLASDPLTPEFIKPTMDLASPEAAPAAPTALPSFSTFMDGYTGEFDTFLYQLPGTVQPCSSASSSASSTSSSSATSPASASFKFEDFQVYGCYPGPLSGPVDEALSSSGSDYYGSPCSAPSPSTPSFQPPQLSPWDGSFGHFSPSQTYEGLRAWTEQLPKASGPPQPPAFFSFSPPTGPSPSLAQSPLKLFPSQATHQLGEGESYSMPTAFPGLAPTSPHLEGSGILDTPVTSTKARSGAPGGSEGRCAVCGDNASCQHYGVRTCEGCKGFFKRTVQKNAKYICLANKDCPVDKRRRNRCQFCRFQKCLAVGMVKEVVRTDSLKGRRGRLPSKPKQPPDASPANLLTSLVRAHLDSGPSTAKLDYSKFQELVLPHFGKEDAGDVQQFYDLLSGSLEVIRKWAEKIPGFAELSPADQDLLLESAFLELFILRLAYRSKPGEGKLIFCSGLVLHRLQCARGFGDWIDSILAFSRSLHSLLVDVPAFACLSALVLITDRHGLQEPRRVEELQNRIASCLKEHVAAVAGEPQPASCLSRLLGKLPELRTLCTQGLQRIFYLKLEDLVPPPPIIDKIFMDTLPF

Bel-7402 = assay: Antiproliferative activity against human Bel-7402 cells assessed as inhibition of cell growth measured after 24 hrs by MTT assay; type: functional, cell-based; details: Bel-7402, 24 h
MDA-MB-231 [26] = assay: Antitumor activity against human MDA-MB-231 cells xenografted in BALB/c mouse assessed as inhibition of tumor growth at 10 mg/kg, ip qd for 16 days; type: functional; details: MDA-MB-231, 384 h, time 16 day, read-out: TGI

With `CCN(CC)CCCNC(=O)c1cc2cc(Nc3nccc(-c4sc(NC)nc4C)n3)ccc2[nH]1` the Activity [1] was “Non-Toxic”, the Activity (MDA-MB-231 [2]) was “Active” and the Activity (MDA-MB-231 [3]) was 4.06%. For the same compound, the Activity (MDA-MB-231 [4]) was 21.84%, the Activity (MDA-MB-231 [5]) was 2.36% and the Activity [6] was “Non-Toxic”. The Activity (MDA-MB-231 [7]) was “Active”, the Activity (MDA-MB-231 [8]) was 0.06 g and the Activity (MDA-MB-231 [9]) was 68.69%. For the same compound, the Activity (MDA-MB-231 [10]) was 13.04%, the IC50 (HCT-116) was 9.84 µM and the Activity [11] was “Non-Toxic”. For the same compound, the Activity (MDA-MB-231 [12]) was “Active”, the Activity (MDA-MB-231 [13]) was “Active” and the Activity (MDA-MB-231 [14]) was “Dose-Dependent Effect”. The Activity (MDA-MB-231 [15]) was “inactive”, the Activity [16] was “Non-Toxic” and the Activity (MDA-MB-231 [17]) was 2.5%. The Activity [18] was “Non-Toxic”, the Activity [19] was “Non-Toxic” and the Activity (MDA-MB-231 [20]) was “Active”. The Activity [21] was “Non-Toxic”, the IC50 (T47D) was 1.05 µM and the IC50 (HCC1806) was 0.38 µM. The Activity (MDA-MB-231 [22]) was 11.24%, the IC50 (HT-29) was 47.2 µM and the selectivity ratio [23] was 45.7. For the same compound, the selectivity ratio [24] was 120, the IC50 (MCF7) was 0.72 µM and the Activity [25] was “Active”. For the same compound, the IC50 (Bel-7402) was 38.3 µM and the inhibition in vivo at 10 mg/kg (MDA-MB-231 [26]) was 100%.
